# Experimental data: article PMC9760604, “Strand 1A variant in neuroserpin shows increased aggregation and no loss of inhibition: implication in ameliorating polymerization to retain activity” (Bioscience Reports, 2022)
# Positions count from the first letter of the chain named.
# Columns and labels:
# [1] = target: T1, WT NS (neuroserpin) (Homo sapiens, UniProt Q99574, H138C/W154C); experiment: Bis-ANS fluorescence, excitation […] nm; type: binding; settings: 2 uM protein, Bis-ANS 1:5 ratio (10 uM), 25 °C, surface hydrophobicity probe
# T1 construct: gene SERPINI1; N-terminal 6-His tag, pET28b, expressed in E. coli BL21(DE3), monomeric
# T1 sequence (Q99574 17-410 H138C/W154C): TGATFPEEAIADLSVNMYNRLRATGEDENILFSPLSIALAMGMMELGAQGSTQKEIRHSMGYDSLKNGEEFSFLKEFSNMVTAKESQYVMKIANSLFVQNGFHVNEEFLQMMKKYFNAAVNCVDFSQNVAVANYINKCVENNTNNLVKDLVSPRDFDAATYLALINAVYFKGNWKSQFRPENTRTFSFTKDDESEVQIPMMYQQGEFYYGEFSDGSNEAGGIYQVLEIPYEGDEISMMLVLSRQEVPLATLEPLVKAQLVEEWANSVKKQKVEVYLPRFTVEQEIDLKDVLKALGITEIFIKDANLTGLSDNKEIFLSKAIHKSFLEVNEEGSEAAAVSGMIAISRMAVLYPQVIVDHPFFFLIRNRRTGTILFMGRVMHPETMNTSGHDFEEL
# [2] = target: T2, WT NS (neuroserpin) (Homo sapiens, UniProt Q99574, H138C); experiment: Bis-ANS fluorescence, excitation […] nm; type: binding; settings: 2 uM protein, Bis-ANS 1:5 ratio (10 uM), 25 °C, surface hydrophobicity probe
# T2 construct: gene SERPINI1; N-terminal 6-His tag, pET28b, expressed in E. coli BL21(DE3), monomeric
# T2 sequence (Q99574 17-410 H138C): T1 sequence (Q99574 17-410 H138C/W154C) with C138W
structure (smiles),measurement,setting,value
"O=S(=O)(O)c1cccc2c(-c3ccc(Nc4ccccc4)c4c(S(=O)(=O)O)cccc34)ccc(Nc3ccccc3)c12 [Bis-ANS, 4,4-Bis-1-anilino naphthalene 8-sulfonate]","Bis-ANS fluorescence, excitation 390 nm",[1],"The double variant showed a decreased fluoroscence emission intensity, and a very high surface hydrophobicity"
same,"Bis-ANS fluorescence, excitation 390 nm",[2],More hydrophobic exposure was observed due to increase Bis-ANS fluorescence in the H138C variant
